# Results: US12162934B2, “Gremlin-1 antagonist for the prevention and treatment of cancer” (UCB BIOPHARMA SRL, priority 2018, dated 2024)
# Assays:
# mouse intestinal crypts = assay: Mouse intestinal organoid culture; assay type: cell-based; conditions: 1 mg/ml antibody added to fully supplemented EGR media
# Description: Culture of mouse intestinal crypts. Mouse intestinal crypts were isolated and cultured as described by Sato et al (6). In brief, crypts were isolated, resuspended in Matrigel (BD Biosciences) and plated out in 24-well plates. The basal culture medium (advanced Dulbecco's modified Eagle medium/F12 supplemented with penicillin/streptomycin, 10 mmol/L HEPES, Glutamax, 1×N2, 1×B27 (all from Invitrogen), and 1 mmol/L N-acetylcysteine (Sigma)) was overlaid containing the following growth factors; Epidermal Growth Factor at 50 ng/ml (Life Technologies), Gremlin1 at 100 ng/ml (R and D), R-spondin1 at 500 ng/ml (R and D) [EGR media]. Anti-Grem1 antibody (UCB) was used at a concentration of 1 mg/ml. The media was changed every two days.
# A mouse organoid culture was used to assess effects of an anti-GREM1 antibody. Successful intestinal epithelial organoid culture is dependent on media supplementation of exogenous BMP antagonist.
# Approximately 60% of crypts formed organoids in media fully supplemented with recombinant epidermal growth factor (E), Grem1 (G) and R-Spondin1, (R) (EGR media). Culture success rate dropped to less than 2% at 7 days in media lacking recombinant Grem1 (ER media).
# Vil1-Grem1;Apc^Min mice = assay: Vil1-Grem1;Apc^Min mouse polyposis model (survival); assay type: in vivo
# Apc^Min mice = assay: Apc^Min mouse polyposis model (survival); assay type: in vivo; conditions: for median survival: vehicle 192 days
# 5TGM1.Bmx1 MM PCs = assay: 5TGM1/KaLwRij mouse model of multiple myeloma, antibody prior to tumour cell inoculation; assay type: in vivo
# Method: Targeting Grem1 prior to tumour cell inoculation in an immunocompetent murine model of systemic MM: C57BL/KaLwRij mice (6-8-week-old) were administered two doses of 30 mg/kg Grem1-neutralising antibody Ab7326 or IgG control Ab101.4 (UCB-Pharma, UK) by subcutaneous (s.c.) injection three days and one day prior to tumour inoculation. At Day 0, mice were inoculated with 5×10^5 5TGM1.Bmx1 cells via tail vein injection. Mice continued to receive either 30 mg/kg Grem1-neutralising antibody Ab7326 or IgG control Ab101.4 (UCB-Pharma, UK) by s.c. injection every 3 days for the duration of the 4-week model. Tumour burden was monitored weekly by BLI as previously described. At the end of the experiment, blood was collected by tail bleed, centrifuged at 2100 g for 10 min and serum collected. Serum paraprotein levels were analysed using the Hydragel 30 β1β2 kit (Sebia Electrophoresis, Georgia, USA) according to the manufacturer's instructions. The band corresponding to paraprotein was quantitated relative to serum albumin levels. (SAHMRI Animal Ethics SAM165)
# rhGrem1 = target: T1, rhGrem1 (Homo sapiens, UniProt O60565); assay: Western blot of Smad1/5/9 phosphorylation in murine 4T1 breast cancer cells; assay type: cell-based, mouse; conditions: 10 ng/ml BMP2, 100 ng/ml rhGrem1 pre-incubated with antibody; vs isotype control
# T1 sequence (O60565 25-184): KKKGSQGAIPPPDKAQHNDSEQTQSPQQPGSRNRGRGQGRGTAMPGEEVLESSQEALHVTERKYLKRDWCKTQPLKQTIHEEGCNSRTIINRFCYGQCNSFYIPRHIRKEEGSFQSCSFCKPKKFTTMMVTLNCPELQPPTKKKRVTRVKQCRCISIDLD
# Method: Murine 4T1 BrCa cells were seeded into 6-well plates and cultured until 80% confluent. Cells were starved in serum-free medium overnight, and then stimulated with indicated treatments for 2 hrs. Cell lysates were prepared and equivalent amounts of protein (50 μg) were separated on 10% sodium dodecyl sulphate-polyacrylamide gel electrophoresis (SDS-PAGE) gels and transferred to nitrocellulose membranes. Immunoblotting was performed with phospho-Smad1/5/9 antibodies (cell signalling technologies, 1:1000 dilution). Equal loading of protein samples was confirmed by blotting membranes with antibodies against β-actin (Sigma Aldrich, 1:2500 dilution). Proteins were visualised using the Odyssey Infrared Imaging System (LI-COR Bioscience, Lincoln, NE, USA).
# As Grem1 is a known BMP-2/4/7 antagonist, we assessed the ability of UCB antibody Ab7326 to inhibit Grem1-induced inhibition of Smad1/5/9 phosphorylation via western blot analysis. Murine 4T1 breast cancer cells exposed to 10 ng/ml BMP2 which led to Smad1/5/9 phosphorylation. Co-incubation with 100 ng/ml rhGrem1 inhibited this BMP2-mediated Smad1/5/9 phosphorylation.
# Vil1-Grem1 mice = assay: AOM mutagenesis in Vil1-Grem1 mice; assay type: in vivo, mouse; conditions: 30 mg/kg weekly antibody for three weeks before and after three 10 mg/kg weekly AOM doses
# Description: Aberrant epithelial Grem1 expression in Vil1-Grem1 mice promotes an epithelial stem/progenitor cell phenotype (Davis et al., 2015), and we hypothesised that these cells would be susceptible to somatic mutation. We used azoxymethane (AOM) administration to examine the effect of a mutagenic insult on untreated Vil1-Grem1 and anti-Grem1 treated Vil1Grem1 mice. AOM is a well-documented mutagen widely utilised in murine models to recapitulate spontaneous CRC carcinogenesis (Neufert and Neurath, 2007).
# Mice were treated with three subcutaneous doses of 30 mg/kg weekly anti-Grem1 antibody followed by three intraperitoneal doses of 10 mg/kg weekly azoxymethane (AOM, Sigma) or vehicle (saline) prior to a further three weeks of 30 mg/kg weekly anti-Grem1 antibody. Treatment commenced at or from the age of 90 days onwards, which is late enough in the Vil1-Grem1 disease process to ensure expansion of the progenitor cell population and subsequent formation of ectopic crypt foci.
substance,measurement,setting,value
Ab7326: allosteric inhibitory anti-Gremlin-1 antibody from a naïve human library; CDRs SEQ ID NOS 4 to 9; mouse IgG1 in mouse experiments,Intestinal organoid culture success,mouse intestinal crypts,prevented successful intestinal organoid culture
same,median survival,"Vil1-Grem1;Apc^Min mice; 15 mg/kg weekly, from 21 days of age, vehicle 45 days",76.5 days
same,mean lifespan,"Vil1-Grem1;Apc^Min mice; 30 mg/kg twice weekly from 3 weeks of age, untreated VG-min 46 days",108 days
same,median survival,"Vil1-Grem1;Apc^Min mice; 30 mg/kg weekly, from 21 days of age, ongoing experiment",108 days
same,median survival,"Vil1-Grem1;Apc^Min mice; 60 mg/kg weekly, from 21 days of age, ongoing experiment",111 days
same,median survival,"Vil1-Grem1;Apc^Min mice; late stage: treatment at or from the age of 35 days, antibody 30 mg/kg weekly, 5FU two i.p. daily doses of 40 mg/kg, no treatment 45 days",49.5 days
same,median survival,"Apc^Min mice; early stage treatment (42 days), 30 mg/kg weekly",424.5 days
same,median survival,"Apc^Min mice; established polyposis, 30 mg/kg weekly from 4 months",264.5 days
same,median survival,"Apc^Min mice; late-stage treatment (120 days), 30 mg/kg weekly",261 days
same,Survival / polyp development,Apc^Min mice; long term treatment initiated at 6 weeks of age,prolonged survival
same,Reduction in tumour burden (BLI),"5TGM1.Bmx1 MM PCs; 30 mg/kg s.c. from three days prior to inoculation, 4-weeks post-tumour cell inoculation, vs IgG control",approximately 75%
same,Tumour burden in the hindlimb bones (BLI),"5TGM1.Bmx1 MM PCs; antibody prior to tumour cell inoculation, vs IgG control",significant reduction
same,Additional reduction in overall tumour burden compared with treatment following tumour cell inoculation,5TGM1.Bmx1 MM PCs; end of the study,25%
same,Splenic tumour burden,5TGM1.Bmx1 MM PCs; pre-tumour cell inoculation group,downwards trend
same,M-spike intensity relative to serum albumin (SPEP),"5TGM1.Bmx1 MM PCs; week 4, vs IgG control",significantly lower
same,Smad1/5/9 phosphorylation in 4T1 cells,rhGrem1,partially restored
same,Increased tumour burden and reduced survival of AOM-treated animals,Vil1-Grem1 mice,partially abrogated
